Drawing on PubChem BioAssay (NCI), this text covers GI50 and TGI for 8 compounds.

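Assay format: 96-well plates, 48-hour exposure. GI50 marks 50% less growth. TGI marks complete inhibition of growth.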

Some test systems named below: ACHN renal; RXF 393 renal; A498 renal; KM12 colon; NCI-H460 lung; EKVX NSCLC; NCI-H522 lung; OVCAR-4 ovarian; SF-268 CNS; NCI-H226 lung.
Holding throughout (assay): growth of human tumour cells (NCI), 48 h

Regarding `COC(=O)c1cc2c(s1)-c1nccc3c1c(nc1ccccc13)C2=O`, the GI50 in the assay with ACHN renal is greater than 100 µM; in the assay on RXF 393 renal, 29.8 µM; in the assay with A498 renal, greater than 100 µM; in the assay on KM12 colon, 69.4 µM; in the assay with NCI-H460 lung, greater than 100000 nM; in the assay on EKVX NSCLC it was greater than 100 µM. Besides, the GI50 was 35000 nM with NCI-H522 lung, greater than 100 µM in the assay with OVCAR-4 ovarian, 29.1 µM with SF-268 CNS and greater than 100 µM in the assay with NCI-H226 lung. Besides, the TGI in the assay on ACHN renal, with RXF 393 renal, in the assay on A498 renal, with KM12 colon, in the assay with NCI-H460 lung and in the assay with EKVX NSCLC was greater than 100 µM each time. Also, the TGI in the assay on NCI-H522 lung, with OVCAR-4 ovarian, in the assay on SF-268 CNS and with NCI-H226 lung was greater than 100 µM each time.
Turning to `COc1cc2c3c(c1OC)-c1cc4c(cc1CC3(C#N)N(C(=O)c1ccccc1)CC2)OCO4` (stereo not given), the TGI was greater than 97.2 µM with ACHN renal; 26.9 µM in the assay on RXF 393 renal; 82.3 µM in the assay on A498 renal; greater than 100 µM in the assay on KM12 colon; greater than 100 µM in the assay on NCI-H460 lung; greater than 100 µM in the assay with EKVX NSCLC. Besides, the TGI in the assay with NCI-H522 lung was 81.2 µM; in the assay with OVCAR-4 ovarian, 43 µM; in the assay with SF-268 CNS, greater than 91 µM; with NCI-H226 lung, 78.2 µM.
Turning to `COC12C(COC(N)=O)C3=C(C(=O)C(C)=C(N)C3=O)N1CC1C2N1C` (stereo not given), the TGI in the assay with ACHN renal came to 25.3 µM; with RXF 393 renal it was 28.7 µM; with A498 renal, 21.2 µM; with KM12 colon, 43.7 µM; with NCI-H460 lung it was 1.86 µM; with EKVX NSCLC, 60.3 µM. Moreover, the TGI was found to be 25.4 µM in the assay with NCI-H522 lung, 28.1 µM in the assay with OVCAR-4 ovarian, 47 µM in the assay with SF-268 CNS and 38.8 µM in the assay on NCI-H226 lung.
Regarding `CCOC(=O)c1c(-c2ccc(OC)cc2)c(C#N)c2c(C#N)c(N)nn2c1N`, the GI50 is 4.02 µM in the assay with ACHN renal; 2.25 µM with RXF 393 renal; 1.73 µM with A498 renal; 4.01 µM in the assay with KM12 colon; 3670 nM in the assay on NCI-H460 lung; 4.8 µM in the assay with EKVX NSCLC. In addition, the GI50 with NCI-H522 lung is 2550 nM; in the assay on OVCAR-4 ovarian, 6.11 µM; in the assay with SF-268 CNS, 5.39 µM; in the assay on NCI-H226 lung, 3.62 µM. Moreover, the TGI in the assay with ACHN renal is 48.5 µM; with RXF 393 renal, 11.5 µM; in the assay on A498 renal it was 7.88 µM; in the assay on KM12 colon, greater than 100 µM; in the assay with NCI-H460 lung it was 30.9 µM; in the assay with EKVX NSCLC, greater than 100 µM. Moreover, the TGI is 12.5 µM in the assay on NCI-H522 lung, 96.7 µM in the assay on OVCAR-4 ovarian, 73.7 µM with SF-268 CNS and greater than 100 µM with NCI-H226 lung.
As to `C[C@@]12CCC[C@@](C)(C(=O)O)C1CC[C@]13CC(=O)[C@](CO)(C1)[C@@H](O)CC32` (stereo not given in full), the GI50 was greater than 100 µM in the assay with ACHN renal; greater than 100 µM in the assay with RXF 393 renal; greater than 100 µM in the assay with A498 renal; greater than 100 µM in the assay on KM12 colon; greater than 100000 nM in the assay with NCI-H460 lung; greater than 100 µM with EKVX NSCLC. The GI50 with NCI-H522 lung is greater than 100000 nM; in the assay on OVCAR-4 ovarian, greater than 100 µM; in the assay with SF-268 CNS, greater than 100 µM; in the assay on NCI-H226 lung, greater than 100 µM. Also, the TGI in the assay with ACHN renal, with RXF 393 renal, in the assay with A498 renal, with KM12 colon, in the assay with NCI-H460 lung and in the assay on EKVX NSCLC was greater than 100 µM in each case. Further, the TGI in the assay with NCI-H522 lung, with OVCAR-4 ovarian, in the assay with SF-268 CNS and in the assay with NCI-H226 lung was greater than 100 µM in each case.
On to `COc1ccc(C2=C(c3ccc(OC)cc3)C(=O)N3CCCC3C2)cc1` (stereo not given), for which the GI50 in the assay on ACHN renal is 15 µM; in the assay on RXF 393 renal, 17.7 µM; with A498 renal, 45.9 µM; in the assay with KM12 colon, 9.26 µM; with NCI-H460 lung, 1810 nM; in the assay on EKVX NSCLC, 30.2 µM. The GI50 in the assay with NCI-H522 lung is 14100 nM; in the assay with OVCAR-4 ovarian, 15.5 µM; in the assay with SF-268 CNS, 16.4 µM; with NCI-H226 lung it was 37.1 µM. The TGI in the assay with ACHN renal is greater than 100 µM; with RXF 393 renal, greater than 83.2 µM; with A498 renal it was greater than 100 µM; in the assay with KM12 colon, greater than 100 µM; with NCI-H460 lung, greater than 40.9 µM; with EKVX NSCLC, greater than 100 µM. For the same compound, the TGI was 96.8 µM with NCI-H522 lung, greater than 100 µM in the assay on OVCAR-4 ovarian, greater than 100 µM in the assay with SF-268 CNS and greater than 100 µM with NCI-H226 lung.
As to `CCc1ccc(/C=C/c2ccc(O)c3ncccc23)[n+](C)c1`, the GI50 with ACHN renal was greater than 61.1 µM; in the assay on RXF 393 renal it was greater than 100 µM; with A498 renal, 1.42 µM; in the assay on KM12 colon it was 0.512 µM; with NCI-H460 lung, 507 nM; in the assay with EKVX NSCLC, 0.777 µM. For the same compound, the GI50 with NCI-H522 lung is 2300 nM; in the assay on OVCAR-4 ovarian it was 5.6 µM; in the assay with SF-268 CNS it was 0.749 µM; in the assay on NCI-H226 lung, greater than 22.4 µM. Further, the TGI is greater than 100 µM in the assay with ACHN renal; greater than 100 µM in the assay on RXF 393 renal; greater than 63 µM in the assay with A498 renal; greater than 100 µM in the assay on KM12 colon; greater than 100 µM in the assay with NCI-H460 lung; greater than 100 µM in the assay with EKVX NSCLC. For the same compound, the TGI with NCI-H522 lung, in the assay on OVCAR-4 ovarian, in the assay with SF-268 CNS and in the assay on NCI-H226 lung was greater than 100 µM in each case.
On to `CN(C)C(=S)Sc1ccc([N+](=O)[O-])cc1[N+](=O)[O-]`, for which the GI50 in the assay with ACHN renal was 1.67 µM; in the assay on RXF 393 renal, 3.83 µM; in the assay on A498 renal it was 9.47 µM; in the assay with KM12 colon it was 2.81 µM; in the assay on NCI-H460 lung, 740 nM; with EKVX NSCLC, 5.29 µM. For the same compound, the GI50 in the assay on NCI-H522 lung is 482 nM; in the assay with OVCAR-4 ovarian, 1.61 µM; with SF-268 CNS, 3.32 µM; with NCI-H226 lung, 4.33 µM. Further, the TGI is 3.05 µM in the assay with ACHN renal; 8.3 µM in the assay with RXF 393 renal; 22 µM in the assay with A498 renal; 12.7 µM in the assay with KM12 colon; 4.57 µM in the assay with NCI-H460 lung; 19.7 µM in the assay on EKVX NSCLC. Also, the TGI was 1.6 µM in the assay on NCI-H522 lung, 13.9 µM in the assay on OVCAR-4 ovarian, 15.4 µM with SF-268 CNS and 17.5 µM with NCI-H226 lung.
